The values below come from article PMC12305662, “Fragment-Based Development of Small Molecule Inhibitors Targeting Mycobacterium tuberculosis Cholesterol Metabolism” (Journal of Medicinal Chemistry, 2025).

Where two headings read alike, the source gives them in different places.

In one series the target is CYP125 (Mycobacterium tuberculosis, UniProt P9WPP1). The series is classed as binding. The following applies: for CYP125 Δλmax (nm) HS: high spin population, '-' = no HS maxima present; for CYP125 Δλmax (nm) LS: low spin population, '-' = no LS maxima present; for Δλmax (nm) CYP125, fragment screen: fragment 1 mM, P450 4-6 µM, Soret shift relative to DMSO (393 nm).
The next series concerns the target CYP142 (Mycobacterium tuberculosis, UniProt P9WPL5). The settings on record: for CYP142 Δλmax (nm): compound 100 µM, P450 5 µM; for Δλmax (nm) CYP142, fragment screen: fragment 1 mM, P450 4-6 µM, relative to DMSO (418.5 nm).
Another series concerns the target CYP124 (Mycobacterium tuberculosis, UniProt P9WPP3). The settings on record: fragment 1 mM, P450 4-6 µM; relative to DMSO (419 nm).
The target of another series is CYP126 (Mycobacterium tuberculosis, UniProt P9WPN9). The settings on record: fragment 1 mM, P450 4-6 µM; relative to DMSO (418 nm).
The next series concerns the target CYP144 (Mycobacterium tuberculosis, UniProt P9WPL1). The settings on record: fragment 1 mM, P450 4-6 µM; relative to DMSO (421 nm).
The target in a further series is CYP121 (Mycobacterium tuberculosis, UniProt P9WPP7). The settings on record: fragment 1 mM, P450 4-6 µM; relative to DMSO (417 nm).
The target in a further series is CYP143 (Mycobacterium tuberculosis, UniProt P9WPL3). The settings on record: fragment 1 mM, P450 4-6 µM; relative to DMSO (416 nm).
Setting [1] is: compound 100 µM, P450 5 µM, ratio of low spin to high spin CYP125.

Chain of CYP144 (P9WPL1 whole entry, the tested form may be a part): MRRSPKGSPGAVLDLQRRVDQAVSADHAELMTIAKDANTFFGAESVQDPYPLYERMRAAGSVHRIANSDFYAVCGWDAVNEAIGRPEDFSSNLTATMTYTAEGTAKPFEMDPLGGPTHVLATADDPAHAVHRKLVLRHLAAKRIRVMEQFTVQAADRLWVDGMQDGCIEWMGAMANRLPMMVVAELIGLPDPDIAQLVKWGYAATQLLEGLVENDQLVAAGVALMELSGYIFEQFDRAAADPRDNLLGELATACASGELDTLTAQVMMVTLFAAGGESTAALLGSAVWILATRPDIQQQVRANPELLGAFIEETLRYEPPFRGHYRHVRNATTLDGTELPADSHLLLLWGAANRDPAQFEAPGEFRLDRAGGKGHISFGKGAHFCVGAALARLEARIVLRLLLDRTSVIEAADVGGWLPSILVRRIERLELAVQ
Chain of CYP142 (P9WPL5 whole entry, the tested form may be a part): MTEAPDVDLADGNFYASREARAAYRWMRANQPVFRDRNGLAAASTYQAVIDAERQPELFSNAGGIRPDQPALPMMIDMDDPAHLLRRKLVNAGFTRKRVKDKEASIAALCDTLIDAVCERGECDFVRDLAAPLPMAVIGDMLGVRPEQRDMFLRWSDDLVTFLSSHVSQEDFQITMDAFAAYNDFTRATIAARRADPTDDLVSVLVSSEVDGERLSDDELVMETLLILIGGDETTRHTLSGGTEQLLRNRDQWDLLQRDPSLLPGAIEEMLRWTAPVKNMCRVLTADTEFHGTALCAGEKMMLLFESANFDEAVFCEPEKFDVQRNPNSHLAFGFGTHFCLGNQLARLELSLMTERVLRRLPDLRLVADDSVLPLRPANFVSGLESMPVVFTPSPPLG
Chain of CYP125 (P9WPP1 whole entry, the tested form may be a part): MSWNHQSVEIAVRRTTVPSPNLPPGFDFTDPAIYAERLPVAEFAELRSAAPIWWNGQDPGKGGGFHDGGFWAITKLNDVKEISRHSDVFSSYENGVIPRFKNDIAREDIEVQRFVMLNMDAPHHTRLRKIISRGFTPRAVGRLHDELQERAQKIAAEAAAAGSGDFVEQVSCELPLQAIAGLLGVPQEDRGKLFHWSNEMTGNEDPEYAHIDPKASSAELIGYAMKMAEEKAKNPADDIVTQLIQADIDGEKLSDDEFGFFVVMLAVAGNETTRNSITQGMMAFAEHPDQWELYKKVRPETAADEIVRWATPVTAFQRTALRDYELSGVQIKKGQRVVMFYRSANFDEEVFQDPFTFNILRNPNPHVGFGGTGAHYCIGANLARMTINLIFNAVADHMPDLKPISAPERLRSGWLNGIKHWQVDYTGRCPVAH
Chain of CYP124 (P9WPP3 whole entry, the tested form may be a part): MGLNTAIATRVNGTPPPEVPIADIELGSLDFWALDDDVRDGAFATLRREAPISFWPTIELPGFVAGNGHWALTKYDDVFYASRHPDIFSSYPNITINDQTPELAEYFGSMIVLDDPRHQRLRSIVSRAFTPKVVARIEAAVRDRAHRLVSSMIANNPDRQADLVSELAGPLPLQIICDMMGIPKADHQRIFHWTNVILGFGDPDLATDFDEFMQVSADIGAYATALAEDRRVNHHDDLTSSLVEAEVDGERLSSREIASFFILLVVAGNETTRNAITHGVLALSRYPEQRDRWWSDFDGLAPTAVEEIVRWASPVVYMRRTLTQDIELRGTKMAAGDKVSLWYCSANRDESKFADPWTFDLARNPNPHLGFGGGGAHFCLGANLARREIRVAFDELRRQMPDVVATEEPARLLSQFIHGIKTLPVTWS
Chain of CYP121 (P9WPP7 whole entry, the tested form may be a part): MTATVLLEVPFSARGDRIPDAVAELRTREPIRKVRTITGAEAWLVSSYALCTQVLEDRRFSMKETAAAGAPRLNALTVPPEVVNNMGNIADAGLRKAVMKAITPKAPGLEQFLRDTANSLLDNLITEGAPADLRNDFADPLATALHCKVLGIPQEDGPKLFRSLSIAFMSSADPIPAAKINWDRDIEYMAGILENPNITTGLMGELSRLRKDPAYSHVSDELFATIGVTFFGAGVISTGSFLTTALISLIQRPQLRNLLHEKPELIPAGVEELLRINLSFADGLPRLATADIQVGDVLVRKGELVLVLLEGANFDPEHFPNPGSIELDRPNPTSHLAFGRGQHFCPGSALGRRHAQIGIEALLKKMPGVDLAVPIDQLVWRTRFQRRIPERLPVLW
Chain of CYP143 (P9WPL3 whole entry, the tested form may be a part): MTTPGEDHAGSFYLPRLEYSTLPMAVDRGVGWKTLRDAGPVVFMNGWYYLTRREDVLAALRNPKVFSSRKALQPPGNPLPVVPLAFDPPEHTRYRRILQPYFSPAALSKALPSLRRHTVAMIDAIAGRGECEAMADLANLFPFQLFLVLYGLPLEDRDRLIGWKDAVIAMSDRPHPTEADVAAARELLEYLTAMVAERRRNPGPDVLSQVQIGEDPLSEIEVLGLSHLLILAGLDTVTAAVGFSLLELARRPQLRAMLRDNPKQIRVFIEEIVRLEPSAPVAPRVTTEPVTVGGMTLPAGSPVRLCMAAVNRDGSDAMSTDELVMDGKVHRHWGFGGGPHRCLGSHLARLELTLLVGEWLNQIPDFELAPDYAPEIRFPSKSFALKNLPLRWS
Chain of CYP126 (P9WPN9 whole entry, the tested form may be a part): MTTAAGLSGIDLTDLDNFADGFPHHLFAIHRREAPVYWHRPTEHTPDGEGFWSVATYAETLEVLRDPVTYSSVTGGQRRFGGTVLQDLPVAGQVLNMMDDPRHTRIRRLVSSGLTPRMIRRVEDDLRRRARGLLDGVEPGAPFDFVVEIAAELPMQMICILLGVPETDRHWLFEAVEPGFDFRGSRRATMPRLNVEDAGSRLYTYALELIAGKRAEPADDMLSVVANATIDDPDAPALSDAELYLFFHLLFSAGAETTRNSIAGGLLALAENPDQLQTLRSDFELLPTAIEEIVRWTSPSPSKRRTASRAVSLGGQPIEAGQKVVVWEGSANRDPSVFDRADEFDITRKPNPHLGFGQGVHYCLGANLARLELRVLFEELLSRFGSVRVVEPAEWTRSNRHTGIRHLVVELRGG

As to `Nc1ccc(Cc2ccncc2)cc1` [3e], the “CYP125 LS/HS” value on CYP125 came to 1.7. Besides, on CYP125 (compound 100 µM, P450 5 µM), the “CYP125 Δλmax (nm) HS” value is 3 nm and the “CYP125 Δλmax (nm) LS” value came out at 29 nm. Besides, on CYP142, the “CYP142 Δλmax (nm)” value came out at 3 nm.

For `O=[N+]([O-])c1ccc(Br)c2ccncc12` [compound 59], the “Δλmax (nm) CYP125, fragment screen” value on CYP125 was 0 nm. The “Δλmax (nm) CYP142, fragment screen” value on CYP142 was 0 nm. In addition, on CYP124, the “Δλmax (nm) CYP124, fragment screen” value was 1 nm. For the same compound, the “Δλmax (nm) CYP126, fragment screen” value on CYP126 came out at 0 nm. The “Δλmax (nm) CYP144, fragment screen” value on CYP144 came out at 0 nm.

For the compound `O=C(c1ccccc1)c1ccncc1` [2f], the “CYP125 Δλmax (nm) HS” value at CYP125 (compound 100 µM, P450 5 µM) is 0 nm. Besides, the “CYP142 Δλmax (nm)” value on CYP142 is recorded as 0 nm.

As for `CN(c1ccccc1)c1ccncc1` [2b, N-Methyl-N-phenylpyridin-4-amine], on CYP125 (compound 100 µM, P450 5 µM), the “CYP125 Δλmax (nm) HS” value is 1 nm and the “CYP125 Δλmax (nm) LS” value was 25 nm. Also, the “CYP125 LS/HS” value on CYP125 (setting [1]) stood at 0.9. Also, the “CYP142 Δλmax (nm)” value at CYP142 turned out to be 4 nm.

In the case of `Clc1cccnc1Cl` [compound 61], at CYP142, the “Δλmax (nm) CYP142, fragment screen” value amounted to 0 nm. The “Δλmax (nm) CYP124, fragment screen” value on CYP124 is reported as 0 nm. Moreover, on CYP121, the “Δλmax (nm) CYP121, fragment screen” value is 0 nm. Also, at CYP126, the “Δλmax (nm) CYP126, fragment screen” value turned out to be 0 nm. The “Δλmax (nm) CYP143, fragment screen” value at CYP143 is 0 nm. Also, at CYP144, the “Δλmax (nm) CYP144, fragment screen” value was found to be 0 nm.

With `O=C(O)c1cccc(Nc2ccncc2)c1` [4e, 3-(Pyridin-4-ylamino)benzoic Acid], the “CYP125 Δλmax (nm) HS” value at CYP125 (compound 100 µM, P450 5 µM) amounted to 0 nm. Also, the “CYP142 Δλmax (nm)” value on CYP142 turned out to be 0 nm.

As to `Nn1cccc1C(=O)O` [compound 62], at CYP142, the “Δλmax (nm) CYP142, fragment screen” value turned out to be 0 nm. In addition, the “Δλmax (nm) CYP124, fragment screen” value at CYP124 turned out to be 0 nm. The “Δλmax (nm) CYP126, fragment screen” value on CYP126 came to 0 nm. In addition, the “Δλmax (nm) CYP143, fragment screen” value on CYP143 turned out to be 4 nm. The “Δλmax (nm) CYP144, fragment screen” value at CYP144 worked out at 0 nm.

In the case of `c1ccc(N(c2ccccc2)c2ccncc2)cc1` [2c, N,N-Diphenylpyridin-4-amine], at CYP125 (compound 100 µM, P450 5 µM), the “CYP125 Δλmax (nm) HS” value worked out at 2 nm and the “CYP125 Δλmax (nm) LS” value came to 28 nm. On CYP125 (setting [1]), the “CYP125 LS/HS” value was 1. Moreover, at CYP142, the “CYP142 Δλmax (nm)” value turned out to be 4 nm.

In the case of `C(=C\c1ccncc1)/c1ccccc1` [2g, (E)-4-Styrylpyridine], the “CYP125 Δλmax (nm) LS” value on CYP125 (compound 100 µM, P450 5 µM) is 29 nm. On CYP125 (setting [1]), the “CYP125 LS/HS” value turned out to be 1.4. At CYP142, the “CYP142 Δλmax (nm)” value amounted to 3 nm.

As for `Nc1cccnc1O` [compound 45], at CYP125, the “Δλmax (nm) CYP125, fragment screen” value is 0 nm. Further, on CYP142, the “Δλmax (nm) CYP142, fragment screen” value is given as 0 nm. At CYP124, the “Δλmax (nm) CYP124, fragment screen” value amounted to 0 nm. In addition, the “Δλmax (nm) CYP126, fragment screen” value on CYP126 is recorded as 0 nm. Moreover, the “Δλmax (nm) CYP143, fragment screen” value at CYP143 was found to be 0 nm. Also, the “Δλmax (nm) CYP144, fragment screen” value on CYP144 is 0 nm.

Regarding `Brc1cccc(Nc2ccncc2)c1` [4h, N-(3-Bromophenyl)pyridin-4-amine], the “CYP125 Δλmax (nm) LS” value at CYP125 (compound 100 µM, P450 5 µM) was 31 nm. Also, the “CYP125 LS/HS” value at CYP125 (setting [1]) is listed as 1.4. Besides, the “CYP142 Δλmax (nm)” value at CYP142 came out at 4 nm.

As for `Nc1ccc(Nc2ccncc2)cc1` [4b, N^1-(Pyridin-4-yl)benzene-1,4-diamine], on CYP125 (compound 100 µM, P450 5 µM), the “CYP125 Δλmax (nm) HS” value is reported as 1 nm and the “CYP125 Δλmax (nm) LS” value was determined as 31 nm. Also, the “CYP125 LS/HS” value on CYP125 (setting [1]) was 1.3. Moreover, at CYP142, the “CYP142 Δλmax (nm)” value worked out at 3 nm.

With `Brc1ccc(Nc2ccncc2)cc1` [4i, N-(4-Bromophenyl)pyridin-4-amine], at CYP125 (compound 100 µM, P450 5 µM), the “CYP125 Δλmax (nm) HS” value was found to be 2 nm and the “CYP125 Δλmax (nm) LS” value was determined as 29 nm. For the same compound, the “CYP125 LS/HS” value at CYP125 (setting [1]) amounted to 1.2. In addition, on CYP142, the “CYP142 Δλmax (nm)” value came out at 4 nm.

For `COC(=O)c1cccc(Nc2ccncc2)c1` [4c, Methyl/Ethyl 3-(pyridin-4-ylamino)benzoate], on CYP125 (compound 100 µM, P450 5 µM), the “CYP125 Δλmax (nm) HS” value is 1 nm and the “CYP125 Δλmax (nm) LS” value was found to be 27 nm. Besides, the “CYP125 LS/HS” value at CYP125 (setting [1]) was 1. For the same compound, the “CYP142 Δλmax (nm)” value on CYP142 was 3 nm.

Take `Clc1nccc2ccc(Br)cc12` [compound 37]: the “Δλmax (nm) CYP125, fragment screen” value at CYP125 was 0 nm. For the same compound, the “Δλmax (nm) CYP142, fragment screen” value on CYP142 is listed as 0 nm. In addition, the “Δλmax (nm) CYP124, fragment screen” value at CYP124 is 0 nm. Moreover, the “Δλmax (nm) CYP121, fragment screen” value at CYP121 was -3 nm. The “Δλmax (nm) CYP126, fragment screen” value at CYP126 turned out to be 0 nm. At CYP144, the “Δλmax (nm) CYP144, fragment screen” value turned out to be 0 nm.

Take `c1ccc(Oc2ccncc2)cc1` [2d, 4-Phenoxypyridine]: on CYP125 (compound 100 µM, P450 5 µM), the “CYP125 Δλmax (nm) HS” value is reported as 1 nm and the “CYP125 Δλmax (nm) LS” value is 25 nm. For the same compound, the “CYP125 LS/HS” value at CYP125 (setting [1]) was found to be 1. The “CYP142 Δλmax (nm)” value on CYP142 is listed as 2 nm.

For the compound `COc1ccc(Cc2ccncc2)cc1` [3b, 4-(4-Methoxybenzyl)pyridine], at CYP125 (compound 100 µM, P450 5 µM), the “CYP125 Δλmax (nm) HS” value was determined as 1 nm and the “CYP125 Δλmax (nm) LS” value was determined as 25 nm. At CYP125 (setting [1]), the “CYP125 LS/HS” value amounted to 1. Moreover, on CYP142, the “CYP142 Δλmax (nm)” value was found to be 2 nm.

For `O=C(O)c1ccc(Nc2ccncc2)cc1` [4f, 4-(Pyridin-4-ylamino)benzoic Acid], the “CYP125 Δλmax (nm) HS” value on CYP125 (compound 100 µM, P450 5 µM) came to 1 nm. Besides, at CYP142, the “CYP142 Δλmax (nm)” value stood at 0 nm.

Turning to 3-(Pyridin-4-ylmethyl)aniline [3d], on CYP125 (compound 100 µM, P450 5 µM), the “CYP125 Δλmax (nm) HS” value was 3 nm and the “CYP125 Δλmax (nm) LS” value is reported as 29 nm.

Consider `Nc1cccnc1N` [compound 66], for which the “Δλmax (nm) CYP142, fragment screen” value on CYP142 was found to be 0 nm. Also, the “Δλmax (nm) CYP124, fragment screen” value on CYP124 amounted to 0 nm. Besides, the “Δλmax (nm) CYP126, fragment screen” value on CYP126 is recorded as 0 nm. For the same compound, the “Δλmax (nm) CYP143, fragment screen” value on CYP143 is on record as 0 nm. Also, the “Δλmax (nm) CYP144, fragment screen” value at CYP144 was 0 nm.

As to `COc1ncccc1C(=O)O` [compound 65], the “Δλmax (nm) CYP142, fragment screen” value on CYP142 is 0 nm. Also, the “Δλmax (nm) CYP124, fragment screen” value at CYP124 was 0 nm. Further, the “Δλmax (nm) CYP121, fragment screen” value at CYP121 is reported as 0 nm. Besides, at CYP126, the “Δλmax (nm) CYP126, fragment screen” value amounted to 0 nm. Further, the “Δλmax (nm) CYP143, fragment screen” value on CYP143 was 1 nm. On CYP144, the “Δλmax (nm) CYP144, fragment screen” value worked out at 0 nm.

In the case of `c1ccc(CCc2ccncc2)cc1` [2h, 4-Phenethylpyridine], on CYP125 (compound 100 µM, P450 5 µM), the “CYP125 Δλmax (nm) HS” value worked out at 2 nm and the “CYP125 Δλmax (nm) LS” value was 26 nm. Besides, on CYP125 (setting [1]), the “CYP125 LS/HS” value is 1. In addition, the “CYP142 Δλmax (nm)” value on CYP142 was 2 nm.

Regarding `COC(=O)c1ccc(Nc2ccncc2)cc1` [4d, Methyl 4-(pyridin-4-ylamino)benzoate], on CYP125 (compound 100 µM, P450 5 µM), the “CYP125 Δλmax (nm) HS” value was 2 nm and the “CYP125 Δλmax (nm) LS” value worked out at 26 nm. Besides, the “CYP125 LS/HS” value at CYP125 (setting [1]) amounted to 1. Besides, at CYP142, the “CYP142 Δλmax (nm)” value is 3 nm.

On to `COc1cccc(Cc2ccncc2)c1` [3a, 4-(3-Methoxybenzyl)pyridine], for which, on CYP125 (compound 100 µM, P450 5 µM), the “CYP125 Δλmax (nm) HS” value came out at 1 nm and the “CYP125 Δλmax (nm) LS” value worked out at 27 nm. On CYP125 (setting [1]), the “CYP125 LS/HS” value amounted to 1.1. Also, the “CYP142 Δλmax (nm)” value on CYP142 was 2 nm.

Consider `OCc1cccc(Nc2ccncc2)c1` [4g], for which the “CYP125 Δλmax (nm) HS” value on CYP125 (compound 100 µM, P450 5 µM) turned out to be 0 nm. For the same compound, at CYP142, the “CYP142 Δλmax (nm)” value turned out to be 1 nm.

For the compound `Nc1cccc(Nc2ccncc2)c1` [4a, N^1-(Pyridin-4-yl)benzene-1,3-diamine], at CYP125 (compound 100 µM, P450 5 µM), the “CYP125 Δλmax (nm) HS” value was 1 nm and the “CYP125 Δλmax (nm) LS” value came to 22 nm. Further, the “CYP125 LS/HS” value at CYP125 (setting [1]) was found to be 0.9. At CYP142, the “CYP142 Δλmax (nm)” value was determined as 3 nm.

Regarding `O=S(=O)(c1ccccc1)c1ccncc1` [2e, 4-(Phenylsulfonyl)pyridine], on CYP125 (compound 100 µM, P450 5 µM), the “CYP125 Δλmax (nm) HS” value stood at 0 nm. Further, the “CYP142 Δλmax (nm)” value at CYP142 came out at 0 nm.
